# According to patent US20160151403A1, “SMALL MOLECULE MODULATORS OF P53 FAMILY SIGNALING” (The Trustees of the University of Pennsylvania, priority 2006, published 2016):
# Columns and labels:
# [1] = tested on: HCT116/p53(−/−)/PG13 cells; experiment: p53 transcriptional activity, PG13 reporter, HCT116/p53(-/-)/PG13 cells; assay type: cell-based, human; details: p53-null HCT116, 16 h, bioluminescence
# Protocol: Cells were treated by the indicated compounds at progressive 1:2 serial dilutions for 16 h, and the luciferase activities were detected by bioluminescence imaging. Fold induction was calculated by comparing to the nontreated cells;
# [2] = tested on: p73 in HCT116/p53^−/− cells; experiment: Effect of p73 knockdown (si-p73 retrovirus) on compound-induced p53-responsive transcriptional activity; assay type: cell-based, human; details: retrovirus mediated si-p73, HCT116/p53^−/− cells, FIG. 5D
# Protocol: FIGS. 5A-5D show p53 transcriptional activity is induced in DLD1 xenografts and effects of knockdown of p73 by siRNA on drug-induced transcriptional activity. DLD1/PG13 cells were inoculated subcutaneously with 5 million cells. At 24 hours later mice were treated with selected compounds (100 mg/kg for #1, 50 mg/kg for #14 and #17, and 10 mg/kg for #23), and subsequently bioluminescence imaging was carried out after 16 hours. Two weeks later, tumor masses were weighed. A, bioluminescence imaging of p53 transcriptional activity induced in vivo. B, calculated fold-induction of p53 transcriptional activity. C, inhibition of tumor growth by selected compounds. D, effects of si-TAp73 on the transcriptional activity induced by selected compounds;
# pBS/U6 vector containing TAp73 RNAi were kindly provided by Leif W. Ellisen (20), Harvard Medical School, from which the expression cassette was removed and recombined to pSIREN-RetroQ (Clontech Laboratories, Inc. Mountain View, Calif.), which was reconstructed to express a blasticidin-resistant marker.
# (§1) The questioned whether the p53 family member p73 is involved in the p53-responsive transcriptional activity induced by the compounds identified was then tested. p63, the other p53 family member, was not tested, because the TA form of p63 is rarely expressed in malignant and normal tissues except for germ cells of the ovary and testis.
# [3] = tested on: HCT116/p53(−/−) xenografts; experiment: In vivo anti-tumor assay, HCT116/p53(-/-) xenografts in Balb/c nude mice; details: intra-peritoneal, #1 100 mg/kg, #14 50 mg/kg, #23 10 mg/kg; 7 days after treatment
# Protocol: Balb/c nude mice were inoculated subcutaneously with 2 million HCT116/p53(−/−) cells in Matrigel on each flank. 6 mice were used in each group, in each of the two experiments. When the tumor mass reached about 3-5 mm, mice were treated with the compounds alone or following a single dose of TRAIL at 100 μg/mouse in experiment 1. At 7 days after treatment, mice were sacrificed and the tumor masses were weighted. The doses used were 100 mg/kg for #1, 50 mg/kg for #14, and 10 mg/kg for #23;
# Balb/c nude mice (Charles River Laboratories, Wilmington, Mass.) were inoculated subcutaneously with 2 million HCT116/p53(−/−) cells in an equal volume of Matrigel. When tumor masses reached about 3-5 mm in diameter, mice were treated with the compounds alone by intraperitoneal injection or following a single intravenous dose of TRAIL at 100 μg/mouse. At 7 days after treatment, mice were sacrificed and the tumor masses were weighed. DLD1/PG13 cells were inoculated subcutaneously with 5 million cells. At 24 hours later mice were treated with selected compounds, and subsequently bioluminescence imaging was carried out after 16 hours as previously described [Wang, W. & El-Deiry, W. S. (2003) Cancer Biol Ther 2, 196-202].
# (§2) Compounds #1, #14, #17, and #23 were tested in colon-tumor xenograft-bearing mice in order to evaluate their toxicities and potential anti-tumor effects (FIG. 4). […] The initial doses were chosen below maximal tolerated doses based on the NCI DTP toxicology databases for chemical compound testing in vivo so that mice would survive drug administration and allow subsequent evaluation of anti-tumor effects. p53-null HCT116 xenografts were first tested to document anti-tumor effects in p53-deficient tumors and an experiment to simulate therapy of established tumors was designed. A total of 2×10^6 p53-null HCT116 cells were implanted on opposite flanks subcutaneously in each of 6 nude mice in each group. When tumor masses grew to about 3-5 mm in diameter, drugs were administered intra-peritoneally (#1: 100 mg/kg; #14: 50 mg/kg; #23: 10 mg/kg), and on the next day additional groups received intravenous TRAIL (15) (100 μg/mice via the tail vein). Tumor weights were determined at 7 days later. […] Nonetheless in the future it may be possible to modify the structure of #17 or identify doses where synergistic interactions with TRAIL may be observed.
# [4] = Toxicity in xenograft-bearing mice; assay type: in vivo; details: i.p., #1 100 mg/kg, #14 50 mg/kg, #23 10 mg/kg
# Protocol: as §2
# [5] = tested on: p73 in HCT116/p53(−/−) cells; experiment: Western blot of p73 protein in HCT116/p53(-/-) cells; assay type: cell-based, human; details: FIG. 3F
# Protocol: FIGS. 3A-3F show: Structures (A) of isolated compounds and summary of their effects on the p53 family and transcriptional targets (B). Cell cycle profiles of HCT/p53(+/+) and HCT/p53(−/−) in response to treatment by selected compounds (C-E). The dose of #17 was 200 μM and for #23 it was 10 μM. F, p73 protein levels were elevated in HCT116/p53(−/−) cells in response to treatment by selected compounds at various concentrations as indicated;
# Cells were collected and protein concentration was quantified by the Bio-Rad protein assay prior to SDS-PAGE. Proteins were transferred to a PVDF membrane (Immobilon-P, Millipore Corporation, Bedford, Mass.) by a semi-dry transfer apparatus (Bio-Rad Laboratories, Hercules, Calif.). The membranes with transferred proteins were blotted with 10% W/V non-fat dry milk and then incubated with the primary antibody and subsequently secondary antibodies, which were labelled by horseradish peroxidase, or infrared dyes (IR). Signals were visualized by either ECL (Amersham Pharmacia Biotech, England, UK) and exposed to an X-ray film, or scanned by the Odyssey Infared Imaging System (LI-COR Biosciences, Lincoln, Nebr.). Anti-p53, DO-1, was from Santa Cruz biotechnology, Inc. (Santa Cruz, Calif.), anti-p73 (AB-1) and anti-p21 (AB-1) were obtained from Calbiochem (San Diego, Calif.). Anti-ser20 of p53 Cell were obtained from Signaling Technology (Danvers, Mass.) and anti-DR5 antibody was obtained from Cayman Chemical (Ann Arbor, Mich.).
# as §1
Structure (SMILES),p53 transcriptional activity (reporter assay response) [1],compound-induced p53-responsive transcriptional activity after knockdown of p73 [2],anti-tumor effect (tumor weights) [3],overt toxicities in treated mice [4],p73 protein expression [5]
CO[C@H]1[C@@H](O)[C@@H](C)O[C@H](O[C@H]2[C@H](Oc3cccc4c(O)c5c(=O)oc6ccc(C)c7c(=O)oc(c34)c5c67)O[C@H](C)[C@H](O)[C@@H]2O)[C@@H]1O [#1],stronger responses in the reporter assays,suppressed,anti-tumor effects were observed,No overt toxicities were observed,–
COc1cccc2c1C(=O)c1c(O)c3c(c(O)c1C2=O)CC(O)(/C(C)=N/O)CC3OC1CC(N)C(O)C(C)O1 (centres unmarked) [#14],stronger responses in the reporter assays,suppressed,anti-tumor effects were observed,No overt toxicities were observed,strong inducers of p73
COc1cccc2c1C(=N)c1c(O)c3c(c(O)c1C2=O)C[C@@](O)(C(C)=O)C[C@@H]3O[C@H]1C[C@H](N)[C@H](O)[C@H](C)O1 [#23],stronger responses in the reporter assays,suppressed,anti-tumor effects were observed,No overt toxicities were observed,strong inducers of p73
